Values quoted from earlier work in patent US20190015339A1, “PHARMACEUTICAL COMBINATION FORMULATION” (SHIN POONG PHARMACEUTICAL CO., LTD., priority 2015, published 2019).
Where two headings read alike, the source gives them in different places.

- absolute bioavailability (used as a solution): about 40%
- absolute bioavailability (used as a tablet formulation): about 15%
SMILES: CCOc1nc2cccc(C(=O)OC(C)OC(=O)OC3CCCCC3)c2n1Cc1ccc(-c2ccccc2-c2nnn[nH]2)cc1 (centres unmarked) [candesartan cilexetil]
